Test results: US6605427B2, “Assay for detection of viral fusion inhibitors” (priority 2000, dated 2003)
Read-outs that look alike come from different tables or passages of the source.

Biological target: HIV-1 gp41 core structure (six-helix bundle) formation (Human immunodeficiency virus type 1 group M subtype B, UniProt P04578)
Method: Two days following transfection, intact 293T cells transiently expressing the HIV-1 HXB2 envelope are incubated in the presence of the test compound. At the end of 1 h, 2 μg of soluble CD4 (sCD4) or a cell line expressing CD4 is added. At the end of an additional 1 h, the monoclonal antibody against the six-helix bundle structure is added at a concentration of 10 μg/ml and the mixture is allowed to incubate at 25° C. for 3 hr. Following this incubation the cells are washed 4 times with PBS and lysed with 1 ml lysis buffer (1% Triton X-100, 150 mM NaCl, and 50 mM Tris-Cl pH 7.4). […] Immunoprecipitated complexes are analyzed by 10% SDS-Page gel, transferred to nitrocellulose and immunoblotted with the anti-gp41 monoclonal antibody Chessie 8 (obtained from NIH AIDS Research and Reference Reagent Program) and detected by chemiluminescence and autoradiography.
The ability of the test compound to disrupt these critical conformational changes is assessed by characterizing the formation of the gp41 core structure. […]
The assay is a modified form of an immunoprecipitation (IP) assay and involves incubating the test compound with intact, virus-infected cells expressing the gp120/gp41 envelope complex on their surface. […] In these experiments the ability of a test compound to disrupt gp41 conformational changes was measured by determining its effect of core structure formation.

C=C(C)[C@@H]1CC[C@]2(C(=O)O)CC[C@]3(C)[C@H](CC[C@@H]4[C@@]5(C)CC[C@H](OC(=O)CC(C)(C)C(=O)O)C(C)(C)[C@@H]5CC[C@]43C)[C@@H]12 [DSB, dimethylsuccinylbetulinic acid]
amount of gp41 immunoprecipitated following sCD4 triggering (100 μg/ml DSB (FIG. 8 lane 3)): further reduced to a level nearly identical to that recovered in the absence of CD4 triggering | amount of gp41 immunoprecipitated following sCD4 triggering (10 Mg/ml DSB (FIG. 8 lane 2) versus no test compound (lane 1)): significantly greater than the amount of gp41 immunoprecipitated in the presence of 10 Mg/ml DSB
